Format in all cases: cell-based
In assay [1] the test system is normal primary human skin fibroblastic cells. The assay is described as follows: Intracellular content of collagen in fibroblasts (Western blot and ELISA), relative to control. The following applies: 48 hours; for relative intracellular content of collagen: control group = 100%; for intracellular contents of collagen as compared to the control group (in words): treated cells vs control group. How it is done:
(§1) The normal primary human skin fibroblastic cells (purchased from ATCC) were cultivated in a Fibroblast Growth Medium. The cells thus provided were used in the following experiments. […]
(§2) The normal primary human skin fibroblastic cells provided by [Preparation Example C] were divided into 37 groups and were respectively cultivated with the following medium for 48 hours: • 1. Group 1: a Fibroblast Growth Medium • 2. Group 2-1 to 2-3: Fibroblast Growth Media containing the pachymic acid (PA) provided by [Preparation Example B] at a concentration of 0.01, 0.1 and 1 μM, respectively; • 3. Group 3-1 to 3-3: Fibroblast Growth Media containing the dehydropachymic acid (DPA) provided by [Preparation Example B] at a concentration of 0.01, 0.1 and 1 μM, respectively; • 4. Group 4-1 to 4-3: Fibroblast Growth Media containing the tumulosic acid (TA) provided by [Preparation Example B] at a concentration of 0.01, 0.1 and 1 μM, respectively; • 5. Group 5-1 to 5-3: Fibroblast Growth Media containing the dehydrotumulosic acid (DTA) provided by [Preparation Example B] at a concentration of 0.01, 0.1 and 1 μM, respectively; • 6. Group 6-1 to 6-3: Fibroblast Growth Media containing the polyporenic acid C (PAC) provided by [Preparation Example B] at a concentration of 0.01, 0.1 and 1 μM, respectively; • 7. Group 7-1 to 7-3: Fibroblast Growth Media containing the 3-epi-dehydrotumulosic acid (EDTA) provided by [Preparation Example B] at a concentration of 0.01, 0.1 and 1 μM, respectively; • 8. Group 8-1 to 8-3: Fibroblast Growth Media containing the dehydrotrametenolic acid (DTTA) provided by [Preparation Example B] at a concentration of 0.01, 0.1 and 1 μM, respectively; • 9. Group 9-1 to 9-3: Fibroblast Growth Media containing the trametenolic acid (TTA) provided by [Preparation Example B] at a concentration of 0.01, 0.1 and 1 μM, respectively; • 10. Group 10-1 to 10-3: Fibroblast Growth Media containing the poricoic acid A (PAA) provided by [Preparation Example B] at a concentration of 0.01, 0.1 and 1 μM, respectively; • 11. Group 11-1 to 11-3: Fibroblast Growth Media containing the dehydroeburicoic acid (DEA) provided by [Preparation Example B] at a concentration of 0.01, 0.1 and 1 μM, respectively; • 12. Group 12-1 to 12-3: Fibroblast Growth Media containing the poricoic acid B (PAB) provided by [Preparation Example B] at a concentration of 0.01, 0.1 and 1 μM, respectively; • 13. Group 13-1 to 13-3: Fibroblast Growth Media containing the eburicoic acid (EA) provided by [Preparation Example B] at a concentration of 0.01, 0.1 and 1 μM, respectively.
Thereafter, the cell medium of each group was collected and concentrated. Then, the intracellular content of collagen was measured and analyzed by Western blot and enzyme-linked immunosorbent assay (ELISA).
Background: A western blot detects proteins with antibodies after separation by electrophoresis.

Assay [2] shares this test system. The assay is described as follows: Content of collagen in cell medium (extracellular collagen) of fibroblasts (Western blot and ELISA), relative to control. Conditions: 48 hours; for relative content of collagen in the medium (extracellular content of collagen): control group = 100%; for extracellular contents of collagen (collagen in cell medium) as compared to the control group (in words): treated cells vs control group. The procedure:
The normal primary human skin fibroblastic cells (purchased from ATCC) were cultivated in a Fibroblast Growth Medium. The cells thus provided were used in the following experiments.
The normal primary human skin fibroblastic cells provided by [Preparation Example C] were divided into 4 groups and were respectively cultivated with the following medium for 48 hours: • 1. Group I: a Fibroblast Growth Medium; • 2.
(§3) Thereafter, the cell medium of each group was collected and concentrated. Then, the intracellular content of collagen, the content of collagen in cell medium (i.e., extracellular content of collagen) and the content of hyaluronic acid in cell medium were measured and analyzed by Western blot and enzyme-linked immunosorbent assay (ELISA).
as §2
The content of collagen in the medium of each group (i.e., extracellular content of collagen) was provided.

For assay [3] the test system is unchanged. The assay is described as follows: Content of hyaluronic acid in cell medium of fibroblasts (Western blot and ELISA), relative to control. The following applies: 48 hours; for relative content of hyaluronic acid in the medium (extracellular content of hyaluronic acid): control group = 100%; for contents of hyaluronic acid as compared to the control group (in words) / contents of hyaluronic acid, ingredients singled out as stronger (in words): treated cells vs control group; for contents of hyaluronic acid, ingredients singled out as stronger (in words): compared with the other active ingredients. How it is done:
as §1, §3, §2
The content of hyaluronic acid in the medium of each group (i.e., extracellular content of hyaluronic acid) was provided.

The structures appear in SMILES notation.

`C=C(CCC(C(=O)O)[C@H]1[C@H](O)C[C@@]2(C)C3=CC[C@H]4C(C)(C)[C@@H](OC(C)=O)CC[C@]4(C)C3=CC[C@]12C)C(C)C` (stereo partly shown) [Dehydropachymic acid (DPA), dehydropachymic acid]: the “relative intracellular content of collagen” value in assay [1] (0.01 μM) was 154%; in assay [1] (0.1 μM), 188%; in assay [1] (1 μM), 122%. The “intracellular contents of collagen as compared to the control group (in words)” value in assay [1] was “significantly enhanced”. For the same molecule, the “relative content of collagen in the medium (extracellular content of collagen)” value (shortened to “relative content of collagen”) in assay [2] (0.01 μM) came to 124%; in assay [2] (0.1 μM), 122%; in assay [2] (1 μM), 116%. Moreover, the “extracellular contents of collagen (collagen in cell medium) as compared to the control group (in words)” value in assay [2] is given as “significantly enhanced”. The “relative content of hyaluronic acid in the medium (extracellular content of hyaluronic acid)” value (from here on “relative content of hyaluronic acid”) amounted to 111% in assay [3] (0.01 μM), 131% in assay [3] (0.1 μM) and 152% in assay [3] (1 μM). The “contents of hyaluronic acid as compared to the control group (in words)” value in assay [3] was “significantly enhanced”. Also, the “contents of hyaluronic acid, ingredients singled out as stronger (in words)” value in assay [3] is recorded as “enhanced more significantly”.

As for `C=C(CC[C@@H](C(=O)O)[C@H]1[C@H](O)C[C@@]2(C)C3=C(CC[C@]12C)[C@@]1(C)CC[C@H](OC(C)=O)C(C)(C)[C@@H]1CC3)C(C)C` [Pachymic acid (PA), pachymic acid], the “relative intracellular content of collagen” value in assay [1] (0.01 μM) stood at 172%; in assay [1] (0.1 μM) it was 235%; in assay [1] (1 μM), 211%. Also, the results for the “relative content of collagen” value in assay [2] (0.01 μM), in assay [2] (0.1 μM) and in assay [2] (1 μM) were 117%, 116% and 106%, respectively. Moreover, the “relative content of hyaluronic acid” value in assay [3] (0.01 μM) is recorded as 98%; in assay [3] (0.1 μM), 132%; in assay [3] (1 μM), 140%.

With `C=C(C)[C@@H]1CC=C2C(=CC[C@]3(C)[C@@H]([C@@H](CCC=C(C)C)C(=O)O)[C@H](O)C[C@@]23C)[C@@]1(C)CCC(=O)O` [Poricoic acid B (PAB), poricoic acid B], the “relative intracellular content of collagen” value in assay [1] (0.01 μM) came out at 105%; in assay [1] (0.1 μM), 108%; in assay [1] (1 μM), 99%. Moreover, the results for the “relative content of collagen” value in assay [2] (0.01 μM), in assay [2] (0.1 μM) and in assay [2] (1 μM) were 122%, 136% and 153%, respectively. For the same molecule, in assay [2], the “extracellular contents of collagen (collagen in cell medium) as compared to the control group (in words)” value is listed as “significantly enhanced”. The “relative content of hyaluronic acid” value is on record as 109% in assay [3] (0.01 μM), 104% in assay [3] (0.1 μM) and 84% in assay [3] (1 μM). Further, the “contents of hyaluronic acid as compared to the control group (in words)” value in assay [3] is “significantly enhanced”.

Regarding `C=C(CC[C@@H](C(=O)O)[C@H]1[C@H](O)C[C@@]2(C)C3=CC[C@@H](C(=C)C)[C@](C)(CCC(=O)O)C3=CC[C@]12C)C(C)C` [Poricoic acid A (PAA), poricoic acid A], the “relative intracellular content of collagen” value in assay [1] (0.01 μM) is 78%; in assay [1] (0.1 μM), 104%; in assay [1] (1 μM) it was 115%. Also, the “intracellular contents of collagen as compared to the control group (in words)” value in assay [1] is listed as “significantly enhanced”. Further, the “relative content of collagen” value in assay [2] (0.01 μM) worked out at 111%; in assay [2] (0.1 μM), 111%; in assay [2] (1 μM), 91%. The “extracellular contents of collagen (collagen in cell medium) as compared to the control group (in words)” value in assay [2] was “significantly enhanced”. Also, the “relative content of hyaluronic acid” value in assay [3] (0.01 μM) was found to be 108%; in assay [3] (0.1 μM) it was 106%; in assay [3] (1 μM), 99%. In assay [3], the “contents of hyaluronic acid as compared to the control group (in words)” value was “significantly enhanced”.

As for `C=C(CC[C@@H](C(=O)O)[C@H]1CC[C@@]2(C)C3=CC[C@H]4C(C)(C)[C@@H](O)CC[C@]4(C)C3=CC[C@]12C)C(C)C` [Dehydroeburicoic acid (DEA), dehydroeburicoic acid], the “relative intracellular content of collagen” value stood at 94% in assay [1] (0.01 μM), 80% in assay [1] (0.1 μM) and 77% in assay [1] (1 μM). The “relative content of collagen” value is 143% in assay [2] (0.01 μM), 148% in assay [2] (0.1 μM) and 185% in assay [2] (1 μM). For the same molecule, in assay [2], the “extracellular contents of collagen (collagen in cell medium) as compared to the control group (in words)” value is given as “significantly enhanced”. Moreover, the “relative content of hyaluronic acid” value in assay [3] (0.01 μM) is 115%; in assay [3] (0.1 μM) it was 118%; in assay [3] (1 μM), 128%. Further, in assay [3], the “contents of hyaluronic acid as compared to the control group (in words)” value is given as “significantly enhanced”.

Regarding `C=C(CC[C@@H](C(=O)O)[C@H]1[C@H](O)C[C@@]2(C)C3=CC[C@H]4C(C)(C)[C@H](O)CC[C@]4(C)C3=CC[C@]12C)C(C)C` [3-epi-dehydrotumulosic acid (EDTA), 3-epi-dehydrotumulosic acid], the “relative intracellular content of collagen” value in assay [1] (0.01 μM) came to 87%; in assay [1] (0.1 μM) it was 100%; in assay [1] (1 μM), 80%. The entries for the “relative content of collagen” value in assay [2] (0.01 μM), in assay [2] (0.1 μM) and in assay [2] (1 μM) were 98%, 104% and 111%, respectively. Besides, in assay [2], the “extracellular contents of collagen (collagen in cell medium) as compared to the control group (in words)” value was “significantly enhanced”. For the same molecule, the “relative content of hyaluronic acid” value in assay [3] (0.01 μM) was 105%; in assay [3] (0.1 μM), 122%; in assay [3] (1 μM), 140%. Further, the “contents of hyaluronic acid as compared to the control group (in words)” value in assay [3] is “significantly enhanced”. In assay [3], the “contents of hyaluronic acid, ingredients singled out as stronger (in words)” value was “enhanced more significantly”.

Take `CC(C)=CCC[C@@H](C(=O)O)[C@H]1CC[C@@]2(C)C3=CC[C@H]4C(C)(C)[C@@H](O)CC[C@]4(C)C3=CC[C@]12C` [Dehydrotrametenolic acid (DTTA), dehydrotrametenolic acid]: the figures for the “relative intracellular content of collagen” value in assay [1] (0.01 μM), in assay [1] (0.1 μM) and in assay [1] (1 μM) were 190%, 174% and 118%, respectively. Moreover, the “intracellular contents of collagen as compared to the control group (in words)” value in assay [1] is listed as “significantly enhanced”. The “relative content of collagen” value is 117% in assay [2] (0.01 μM), 158% in assay [2] (0.1 μM) and 131% in assay [2] (1 μM). Further, in assay [2], the “extracellular contents of collagen (collagen in cell medium) as compared to the control group (in words)” value is listed as “significantly enhanced”. The “relative content of hyaluronic acid” value in assay [3] (0.01 μM) amounted to 99%; in assay [3] (0.1 μM), 87%; in assay [3] (1 μM), 108%.

For the origin of these results see patent publication US11654169B2, “Methods for protecting skin and/or promoting wound healing” (SINPHAR PHARMACEUTICAL CO., LTD., priority 2016, dated 2023).
